In PMC6776155 (Breeding Science, 2019):

Test system: TrGDH (His6-TF-TrGDH)
Assay: NADPH oxidation at […] nm, Lineweaver-Burk
Assay type: biochemical, Trichurus sp.
Conditions: amination; 2-OG 1-10 mM, 100 μM NADPH, NH4Cl co-substrate, Tris pH 8.0, 25 °C

SMILES: O=C(O)CCC(=O)C(=O)O [2-oxoglutarate]
- Km: 1.57 ± 0.19 mM
